3 compounds from ChEMBL document CHEMBL5543094, “Exploration of P1 and P4 modifications of nirmatrelvir: Design, synthesis, biological evaluation, and X-ray structural studies of SARS-CoV-2 Mpro inhibitors” (Eur J Med Chem, 2024) can be followed below.

Type in all cases: functional, organism-based
The subject of experiment [1] is SARS-CoV-2. The experiment in a line: Antiviral activity against SARS-CoV-2 Delta K1734 variant infected in African green monkey Vero E6 cells measured 3 days post infection by WST-8 assay. Particulars: Severe acute respiratory syndrome coronavirus 2, Delta K1734, Vero C1008, 72 h. Background: Tetrazolium assays rely on reduction of a dye to a coloured formazan, in cell work by metabolically active cells.

For experiment [2], the system named is SARS-CoV-2. Description: Antiviral activity against SARS-CoV-2 Beta TY8 variant infected in African green monkey Vero E6 cells measured 3 days post infection by WST-8 assay. Particulars: Severe acute respiratory syndrome coronavirus 2, Beta TY8, Vero C1008, 72 h.
In experiment [3] the test system is SARS-CoV-2. Description: Antiviral activity against SARS-CoV-2 Alpha QK002 variant infected in African green monkey Vero E6 cells measured 3 days post infection by WST-8 assay. The following applies: Severe acute respiratory syndrome coronavirus 2, Alpha QK002, Vero C1008, 72 h.
Experiment [4] concerns SARS-CoV-2. Description: Antiviral activity against SARS-CoV-2 Gamma TY7 variant infected in African green monkey Vero E6 cells measured 3 days post infection by WST-8 assay. Particulars: Severe acute respiratory syndrome coronavirus 2, Gamma TY7, Vero C1008, 72 h.
The test system of experiment [5] is SARS-CoV-2. Description: Antiviral activity against SARS-CoV-2 Wuhan 5-2N variant infected in African green monkey Vero E6 cells measured 3 days post infection by WST-8 assay. The following applies: Severe acute respiratory syndrome coronavirus 2, Wuhan 5-2N, Vero C1008, 72 h.
Experiment [6] deals with SARS-CoV-2. Description: Antiviral activity against SARS-CoV-2 Omicron 929 variant infected in African green monkey Vero E6 cells measured 7 days post infection by WST-8 assay. The following applies: Severe acute respiratory syndrome coronavirus 2, Omicron 929, Vero C1008, 168 h.

Consider `CC(C)(C)[C@H](NC(=O)C(Cl)(Cl)Cl)C(=O)N1C[C@H]2[C@@H]([C@H]1C(=O)N[C@H](C#N)C[C@@H]1CCCNC1=O)C2(C)C`, for which the EC50 – broadly, the concentration needed to bring the measured effect to its halfway point – with SARS-CoV-2 [1] came to 0.6 µM; in the experiment on SARS-CoV-2 [2] it was 2.4 µM; with SARS-CoV-2 [3], 0.8 µM; in the experiment on SARS-CoV-2 [4], 2 µM; in the experiment with SARS-CoV-2 [5], 0.7 µM; in the experiment with SARS-CoV-2 [6], 4 µM.
Turning to `CC(C)(C)[C@H](NC(=O)C(F)(F)F)C(=O)N1C[C@H]2[C@@H]([C@H]1C(=O)N[C@H](C#N)C[C@@H]1CCNC1=O)C2(C)C`, the EC50 with SARS-CoV-2 [1] came to 2.9 µM; in the experiment on SARS-CoV-2 [2], 3.7 µM; with SARS-CoV-2 [3], 2.5 µM; in the experiment with SARS-CoV-2 [4], 4 µM; in the experiment on SARS-CoV-2 [5], 3 µM; in the experiment with SARS-CoV-2 [6] it was 3.1 µM.
Take `CCC(CC)COC(=O)[C@H](C)N[P@](=O)(OC[C@H]1O[C@@](C#N)(c2ccc3c(N)ncnn23)[C@H](O)[C@@H]1O)Oc1ccccc1`: the 50% effective concentration (EC50) was determined as 2.9 µM in the experiment with SARS-CoV-2 [1]; 2.8 µM with SARS-CoV-2 [2]; 3.5 µM in the experiment on SARS-CoV-2 [3]; 2.6 µM in the experiment with SARS-CoV-2 [4]; 3.8 µM in the experiment on SARS-CoV-2 [5]; 4.2 µM in the experiment on SARS-CoV-2 [6].
